Reference: patent US20150272939A1, “Identification of Small Molecule Inhibitors of Jumonji AT-Rich Interactive Domain 1A (JARID1A) and 1B (JARID1B) Histone Demethylase” (Yale University, priority 2012, published 2015)
“And” between values parts separate entries of the source, which are not always exact repeats. Equal entries are not always repeated. Where two headings read alike, the source gives them in different places.

Experiments:
[1] = molecular target: T1, JARID1B (Homo sapiens, UniProt Q9UGL1); experiment: FLAG-JARID1B histone demethylase assay with AlphaScreen detection (HTS and dose response); format: biochemical; settings: for Assay − Artifact Signal (percent): assay signal minus artifact signal; for inhibition at 20 µM: read-out: Inhibitory effect (percent); for Assay Signal (percent): effect of compound in JARID1B AlphaScreen assay;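 on Assay Signal (percent): compound tested at 20 µM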;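 on Assay − Artifact Signal (percent): compound tested at 20 µM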;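 on all read-outs here: FLAG-tagged JARID1B at 4 nM acting on a biotinylated H3K4me3 peptide, demethylation read by AlphaScreen luminescence, with hits checked against bio-H3K4me2 without enzyme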
T1 construct: The FLAG tagged full length JARID1B enzyme was expressed in Sf21 insect cells using FLAG-JARID1B baculoviruses; FLAG (N); made in house; host or cells: Sf21 insect cells (baculovirus)
T1 sequence (Q9UGL1 whole entry): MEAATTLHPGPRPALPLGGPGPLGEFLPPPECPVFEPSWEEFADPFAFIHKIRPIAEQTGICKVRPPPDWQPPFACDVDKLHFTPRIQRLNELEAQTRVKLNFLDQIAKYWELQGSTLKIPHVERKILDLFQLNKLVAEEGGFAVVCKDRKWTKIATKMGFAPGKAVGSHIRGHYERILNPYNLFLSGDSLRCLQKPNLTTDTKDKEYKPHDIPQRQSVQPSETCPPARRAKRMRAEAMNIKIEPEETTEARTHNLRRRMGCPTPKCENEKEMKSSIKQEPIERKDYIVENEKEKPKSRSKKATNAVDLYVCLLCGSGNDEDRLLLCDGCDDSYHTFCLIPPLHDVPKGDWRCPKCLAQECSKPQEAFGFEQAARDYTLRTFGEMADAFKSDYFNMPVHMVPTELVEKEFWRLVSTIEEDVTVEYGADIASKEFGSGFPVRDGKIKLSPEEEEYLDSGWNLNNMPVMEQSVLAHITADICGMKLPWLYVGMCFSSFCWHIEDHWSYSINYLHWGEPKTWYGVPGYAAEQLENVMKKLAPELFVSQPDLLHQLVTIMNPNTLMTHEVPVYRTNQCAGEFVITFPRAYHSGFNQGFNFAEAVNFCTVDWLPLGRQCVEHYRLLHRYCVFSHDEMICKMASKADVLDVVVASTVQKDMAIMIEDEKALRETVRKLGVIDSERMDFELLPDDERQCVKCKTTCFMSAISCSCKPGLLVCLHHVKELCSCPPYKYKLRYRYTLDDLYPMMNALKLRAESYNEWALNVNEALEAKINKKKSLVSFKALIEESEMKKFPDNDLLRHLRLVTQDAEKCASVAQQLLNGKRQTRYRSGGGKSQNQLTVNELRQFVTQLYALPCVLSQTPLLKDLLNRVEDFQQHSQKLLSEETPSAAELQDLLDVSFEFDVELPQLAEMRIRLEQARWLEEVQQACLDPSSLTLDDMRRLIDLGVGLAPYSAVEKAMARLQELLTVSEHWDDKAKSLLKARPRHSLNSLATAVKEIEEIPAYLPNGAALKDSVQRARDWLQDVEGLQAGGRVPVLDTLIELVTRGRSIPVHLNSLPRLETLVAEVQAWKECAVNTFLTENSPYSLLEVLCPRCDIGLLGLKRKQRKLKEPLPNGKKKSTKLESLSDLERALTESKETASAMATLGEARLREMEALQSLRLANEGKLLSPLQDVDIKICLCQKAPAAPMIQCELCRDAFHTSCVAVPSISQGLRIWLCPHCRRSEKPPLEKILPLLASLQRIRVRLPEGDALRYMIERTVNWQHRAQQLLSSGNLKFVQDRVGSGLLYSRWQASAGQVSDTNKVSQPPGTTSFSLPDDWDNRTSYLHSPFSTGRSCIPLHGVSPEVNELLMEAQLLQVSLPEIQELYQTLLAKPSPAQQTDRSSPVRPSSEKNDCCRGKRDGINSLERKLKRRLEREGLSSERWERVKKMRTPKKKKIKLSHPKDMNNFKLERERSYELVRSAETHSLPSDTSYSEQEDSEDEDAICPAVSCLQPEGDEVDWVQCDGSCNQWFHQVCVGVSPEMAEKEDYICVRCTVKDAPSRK

[2] = molecular target: T2, JARID1A (Homo sapiens, UniProt P29375); experiment: FLAG-JARID1A histone demethylase assay with AlphaScreen detection (HTS and dose response); format: biochemical; settings: for IC50: dose response, 50 μM Fe (II), read-out: IC50 against JARID1A
T2 construct: the high-throughput screen of the invention utilizes full length JARID1A or JARID1B; FLAG (N); made in house; host or cells: Sf21 insect cells (baculovirus)
T2 sequence (P29375 whole entry): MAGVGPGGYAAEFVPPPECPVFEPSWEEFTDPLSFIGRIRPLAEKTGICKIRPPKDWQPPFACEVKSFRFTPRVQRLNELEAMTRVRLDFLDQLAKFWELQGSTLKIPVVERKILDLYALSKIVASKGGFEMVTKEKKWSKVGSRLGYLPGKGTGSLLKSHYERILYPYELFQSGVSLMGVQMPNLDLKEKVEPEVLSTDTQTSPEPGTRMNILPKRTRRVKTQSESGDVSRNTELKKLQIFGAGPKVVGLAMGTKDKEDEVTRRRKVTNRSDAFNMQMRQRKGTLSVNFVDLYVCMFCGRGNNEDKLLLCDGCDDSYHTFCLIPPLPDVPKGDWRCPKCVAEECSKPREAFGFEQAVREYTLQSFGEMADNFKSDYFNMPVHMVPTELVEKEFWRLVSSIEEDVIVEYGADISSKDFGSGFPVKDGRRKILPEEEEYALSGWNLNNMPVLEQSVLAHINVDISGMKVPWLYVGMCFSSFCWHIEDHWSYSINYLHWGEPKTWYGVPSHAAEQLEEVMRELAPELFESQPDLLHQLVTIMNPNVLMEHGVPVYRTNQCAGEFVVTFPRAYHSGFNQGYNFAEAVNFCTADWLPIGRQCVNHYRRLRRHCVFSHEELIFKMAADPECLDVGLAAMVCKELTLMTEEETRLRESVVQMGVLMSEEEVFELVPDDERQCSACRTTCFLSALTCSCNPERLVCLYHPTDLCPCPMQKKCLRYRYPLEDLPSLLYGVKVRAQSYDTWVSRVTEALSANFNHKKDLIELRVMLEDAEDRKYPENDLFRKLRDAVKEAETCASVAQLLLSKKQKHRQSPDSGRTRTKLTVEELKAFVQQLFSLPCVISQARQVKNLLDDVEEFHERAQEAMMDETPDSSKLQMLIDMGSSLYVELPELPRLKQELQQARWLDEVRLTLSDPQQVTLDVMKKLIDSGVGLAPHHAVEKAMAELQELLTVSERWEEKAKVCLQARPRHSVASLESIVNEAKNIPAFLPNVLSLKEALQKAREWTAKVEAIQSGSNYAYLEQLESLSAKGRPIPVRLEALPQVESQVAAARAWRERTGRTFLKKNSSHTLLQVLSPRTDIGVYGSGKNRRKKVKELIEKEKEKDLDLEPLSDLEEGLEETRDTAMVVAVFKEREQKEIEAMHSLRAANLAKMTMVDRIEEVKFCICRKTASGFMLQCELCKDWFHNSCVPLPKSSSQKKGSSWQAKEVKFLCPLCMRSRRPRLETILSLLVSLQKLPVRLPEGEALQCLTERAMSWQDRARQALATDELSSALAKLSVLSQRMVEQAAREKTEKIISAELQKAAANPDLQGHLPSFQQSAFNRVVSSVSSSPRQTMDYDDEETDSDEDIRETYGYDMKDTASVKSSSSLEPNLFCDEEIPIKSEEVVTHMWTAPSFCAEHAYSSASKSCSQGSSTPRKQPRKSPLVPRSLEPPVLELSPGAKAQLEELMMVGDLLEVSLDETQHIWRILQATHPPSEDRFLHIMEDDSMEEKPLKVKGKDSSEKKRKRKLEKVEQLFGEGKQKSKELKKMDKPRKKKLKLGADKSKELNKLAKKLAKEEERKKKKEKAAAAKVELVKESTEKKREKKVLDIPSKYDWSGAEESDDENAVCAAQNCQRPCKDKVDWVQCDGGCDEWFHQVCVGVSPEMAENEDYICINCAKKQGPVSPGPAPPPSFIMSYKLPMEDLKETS
Description: (§1) Histone demethylase assays were performed in 384 well white plates (Corning 3574). Demethylase buffer conditions for FLAG-JARID1B were as follows: 10 μM α-KG, 100 μM ascorbate, 50 μM (NH4)2Fe(SO4)2, 50 mM Hepes (pH 7.5), 0.01% (v/v) Tween 20, and 0.1% (w/v) bovine serum albumin. The demethylase reactions included 64 nM bio-H3K4me3 peptide alone or in the presence of 4 nM FLAG-JARID1B enzyme in a 10 μl reaction at 25° C. for 30 minutes. As a positive control, 64 nM bio-H3K4me2 peptide was assayed in the absence of enzyme. Assay conditions for FLAG-JARID1C is the same as for FLAG-JARID1B except that 20 nM enzyme was used. For FLAG-JARID1A, the demethylase buffer was similar to FLAG-JARID1B, except that 125 μM α-KG and 13 nM FLAG-JARID1A enzyme were used. The His-FLAG-UTX and FLAG-JMJD3 demethylase assays also employed the same buffer conditions as for FLAG-JARID1B, with 64 nM bio-H3K27me3 peptide assayed with or without 25 nM His-FLAG-UTX enzyme or 50 nM FLAG-JMJD3 (BPS Bioscience, 50115), and 64 nM bio-H3K27me2 peptide as a positive control. JARID1A, JARID1C, UTX, and JMJD3 histone demethylase assays proceeded at 37° C. for 1 hour.
(§2) The AlphaScreen General IgG (Protein A) detection kit was obtained from PerkinElmer. Demethylated H3K4 products were detected using AlphaScreen antibody/bead mix containing 7.5 mM ethylenediaminetetraacetic acid (EDTA) and 0.15 μg/ml anti-H3K4me1 antibody in a final volume of 20 μl. For detection of demethylated H3K27 products, the AlphaScreen antibody/bead mix containing 7.5 mM EDTA and 0.15 μg/ml anti-H3K27me2 antibody in a final volume of 20 μl. The luminescence signal was measured using the Envision (PerkinElmer) or Pherastar (BMG Labtech) Platereaders.
FLAG-JARID1A was screened against 9,600 compounds. These compound libraries were from the Yale Center for Molecular Discovery. The libraries screened include the MicroSource Gen-Plus, MicroSource Pure Natural Products, NIH Clinical Collection, Enzo Epigenetics, and ChemBridge MW-Set libraries. Compounds dissolved in dimethyl sulfoxide (DMSO) were pintooled into a 384 well plate containing bio-H3K4me3 peptide in demethylase buffer to a final concentration of 20 μM. The reactions were initiated by the addition of 13 nM FLAG-JARID1A, and detected as described above. To eliminate the false positive hits, a counterscreen was performed against bio-H3K4me2 in the absence of enzyme.

[3] = molecular target: T3, JARID1C (Homo sapiens, UniProt P41229); experiment: FLAG-JARID1C histone demethylase assay with AlphaScreen detection; format: biochemical; settings: compound 10 μM, 64 nM bio-H3K4me3 peptide
T3 construct: FLAG (N); made in house; host or cells: Sf21 insect cells (baculovirus)
T3 sequence (P41229 whole entry): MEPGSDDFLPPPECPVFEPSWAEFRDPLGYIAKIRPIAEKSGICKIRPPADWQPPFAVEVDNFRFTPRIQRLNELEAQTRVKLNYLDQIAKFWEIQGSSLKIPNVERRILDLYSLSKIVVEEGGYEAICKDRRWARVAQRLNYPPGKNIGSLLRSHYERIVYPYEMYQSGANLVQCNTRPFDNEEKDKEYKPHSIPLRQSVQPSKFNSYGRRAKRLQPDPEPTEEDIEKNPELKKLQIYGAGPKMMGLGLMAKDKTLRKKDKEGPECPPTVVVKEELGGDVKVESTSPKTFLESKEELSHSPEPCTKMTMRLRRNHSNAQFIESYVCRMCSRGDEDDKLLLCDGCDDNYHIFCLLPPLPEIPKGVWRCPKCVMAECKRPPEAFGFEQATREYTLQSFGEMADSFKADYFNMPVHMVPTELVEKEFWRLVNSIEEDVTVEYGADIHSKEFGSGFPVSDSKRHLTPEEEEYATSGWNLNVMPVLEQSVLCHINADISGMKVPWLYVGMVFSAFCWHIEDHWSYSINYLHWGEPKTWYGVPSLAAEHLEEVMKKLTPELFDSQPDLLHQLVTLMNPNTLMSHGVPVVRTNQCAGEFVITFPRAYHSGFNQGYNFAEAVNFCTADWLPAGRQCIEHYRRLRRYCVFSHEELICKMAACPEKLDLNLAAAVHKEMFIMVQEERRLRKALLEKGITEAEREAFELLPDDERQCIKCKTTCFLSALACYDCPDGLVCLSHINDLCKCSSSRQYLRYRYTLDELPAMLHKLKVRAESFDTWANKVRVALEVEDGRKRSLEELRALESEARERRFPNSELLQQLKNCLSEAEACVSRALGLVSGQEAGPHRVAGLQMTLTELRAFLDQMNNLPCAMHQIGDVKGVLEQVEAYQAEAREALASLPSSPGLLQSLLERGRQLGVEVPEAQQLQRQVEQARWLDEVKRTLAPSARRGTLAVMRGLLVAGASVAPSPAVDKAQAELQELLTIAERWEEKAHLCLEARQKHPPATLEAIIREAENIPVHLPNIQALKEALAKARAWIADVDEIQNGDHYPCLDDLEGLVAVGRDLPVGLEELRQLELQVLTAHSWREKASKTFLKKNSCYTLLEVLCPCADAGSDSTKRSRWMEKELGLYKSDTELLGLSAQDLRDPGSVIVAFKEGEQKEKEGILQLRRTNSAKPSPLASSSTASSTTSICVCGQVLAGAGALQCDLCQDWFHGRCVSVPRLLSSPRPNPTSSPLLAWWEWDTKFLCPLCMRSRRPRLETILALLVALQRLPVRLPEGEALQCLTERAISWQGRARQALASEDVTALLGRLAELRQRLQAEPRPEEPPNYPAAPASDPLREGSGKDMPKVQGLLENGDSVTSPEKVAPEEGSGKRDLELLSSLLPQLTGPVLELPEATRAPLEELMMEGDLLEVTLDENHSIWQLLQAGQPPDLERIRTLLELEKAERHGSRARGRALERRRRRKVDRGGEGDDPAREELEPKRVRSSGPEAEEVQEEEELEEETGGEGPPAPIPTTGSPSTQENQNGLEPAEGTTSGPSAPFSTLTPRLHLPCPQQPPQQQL
Description: as §1, §2

[4] = molecular target: T4, UTX (Homo sapiens, UniProt O15550); experiment: His-FLAG-UTX H3K27me3 demethylase assay with AlphaScreen detection; format: biochemical; settings: compound 10 μM, 64 nM bio-H3K27me3 peptide
T4 construct: His (N); FLAG (N); made in house; host or cells: Sf21 insect cells (baculovirus)
Description: as §1, with “The His-FLAG-UTX and FLAG-JMJD3 demethylase assays also employed the same buffer conditions as for FLAG-JARID1B, with 64 nM bio-H3K27me3 peptide assayed with or without 25 nM His-FLAG-UTX enzyme or 50 nM FLAG-JMJD3 (BPS Bioscience, 50115), and 64 nM bio-H3K27me2 peptide as a positive control. JARID1A, JARID1C, UTX, and JMJD3 histone demethylase assays proceeded at 37° C. for 1 hour.” left out
as §2, with “For detection of demethylated H3K27 products, the AlphaScreen antibody/bead mix containing 7.5 mM EDTA and 0.15 μg/ml anti-H3K27me2 antibody in a final volume of 20 μl.” left out

[5] = AlphaScreen counterscreen against bio-H3K4me2 peptide in the absence of enzyme (artifact signal); settings: for Artifact Signal (percent): effect of the compound when incubated with bio-H3K4me2 peptide (counterscreen, no enzyme); for Artifact signal: effect of the compound when it is incubated with bio-H3K4me2 peptide: counterscreen, no enzyme;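 on all read-outs here: counterscreen run without enzyme against bio-H3K4me2 peptide to remove false positive hits from the JARID1 demethylase AlphaScreen screen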
[6] = compound 10 μM, 64 nM bio-H3K4me3 peptide
[7] = high-throughput screen, compound 20 μM, standard demethylase conditions (10 μM α-KG, 50 μM Fe (II))
[8] = high-throughput screen, compound 20 μM, IDs marked *: additional hits under reaction condition with 1 mM α-KG

IC50 [2] | Assay − Artifact Signal (percent) [1] | inhibition at 20 µM [1, 7] | Assay Signal (percent) ([1]; validation of HTS actives) | Artifact Signal (percent) [5] | SMILES | other results
4.1 µM and ~4 µM | – | – | – | – | O=C(O)c1ccnc(C(=O)O)c1 [2,4-PDCA, 2,4-pyridinedicarboxylic acid monohydrate, reference compound] | JARID1B demethylase activity [1, 6]: inhibited; JARID1A demethylase activity [2, 6]: inhibited; JARID1C demethylase activity [3]: inhibited; UTX demethylase activity [4]: did not inhibit
> 1 µM | – | – | – | – | C[C@](N)(Cc1ccc(O)c(O)c1)C(=O)O [Methyldopa] | –
≤ 3 µM | 42.55% | 47.6% | 40.43% | −2.12% | COc1ccc(OC)c(Nc2nc(=O)c3cccnc3s2)c1 [YU151897] | –
– | – | – | – | – | CC[C@]1(O)C[C@H]2CN(CCc3c([nH]c4ccccc34)[C@@](C(=O)OC)(c3cc4c(cc3OC)N(C=O)[C@H]3[C@@](O)(C(=O)OC)[C@H](OC(C)=O)[C@]5(CC)C=CCN6CC[C@]43[C@@H]65)C2)C1.O=S(=O)(O)O [YU221071, VINCRISTINE SULFATE, reference compound] | Inhibitory effect (percent) [1]: 44.20%; Validation effect minus artifact signal [1]: 1.86; Validation result of HTS active: effect of the compound in the JARID1B AlphaScreen demethylase assay [1]: 0.59; Artifact signal: effect of the compound when it is incubated with bio-H3K4me2 peptide [5]: −1.27
~1 µM | – | – | – | – | Sc1ncnc2nc[nH]c12 [Mercaptopurine] | –
– | 30.75% | 69.1% | 50.21% | −0.54% | C[C@](N)(Cc1ccc(O)c(O)c1)C(=O)O [YU033903, METHYLDOPA, reference compound] | –
– | 9.26% | 78.8% | 9.12% | −0.14% | O=C1C=C2C[C@@]3(O)COc4cc(O)ccc4C3=C2C=C1O [YU155025, BRAZILEIN, reference compound] | –
– | 35.27% | 31.6% | 29.44% | −5.84% | Cc1ccccc1C(=O)NCc1nnc(S)n1C [YU147024] | –
– | – | 39.4% | – | – | COC(=O)C1=C(C)NC(=O)C1(Nc1nccs1)C(F)(F)F (stereo not shown) [YU152562] | Validation result of HTS active: effect of the compound in the JARID1B AlphaScreen demethylase assay ([1]; validation of HTS actives, total signal before subtraction of artifact signal): −8.43; Artifact signal: effect of the compound when it is incubated with bio-H3K4me2 peptide [5]: −15.40
– | 53.39% | 52.5% | 48.27% | −5.12% | COc1cc(C=O)ccc1OC(=O)c1ccncc1 [YU146698] | –
– | 35.94% | – | 33.79% | −2.15% | S=c1[nH]cnc2nc[nH]c12 [YU033892, MERCAPTOPURINE, reference compound] | inhibition at 20 µM [1, 8]: 56%
– | 21.20% | – | 13.20% | −8.00% | NC(=O)NO [YU033863, HYDROXYUREA, reference compound] | Inhibitory effect (percent) [1, 8]: 43.49%
